The target of experiment [1] is T1, Serine/threonine-protein kinase Chk1 (Homo sapiens, UniProt O14757).
T1 sequence (O14757 whole entry): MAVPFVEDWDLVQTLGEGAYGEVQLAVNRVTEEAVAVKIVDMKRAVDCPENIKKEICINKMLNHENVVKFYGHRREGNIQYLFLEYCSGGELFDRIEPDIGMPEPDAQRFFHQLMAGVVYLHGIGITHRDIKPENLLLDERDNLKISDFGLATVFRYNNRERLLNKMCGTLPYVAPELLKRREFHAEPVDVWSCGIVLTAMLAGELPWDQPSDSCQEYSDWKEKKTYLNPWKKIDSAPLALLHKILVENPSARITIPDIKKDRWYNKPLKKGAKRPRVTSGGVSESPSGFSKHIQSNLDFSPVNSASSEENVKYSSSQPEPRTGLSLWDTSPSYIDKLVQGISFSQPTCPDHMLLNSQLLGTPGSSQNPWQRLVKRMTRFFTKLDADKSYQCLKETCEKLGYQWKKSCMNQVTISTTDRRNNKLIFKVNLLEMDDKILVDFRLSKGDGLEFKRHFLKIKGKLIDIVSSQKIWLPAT
Nature of the experiment: Inhibition of recombinant His-CHK1 expressed in baculovirus after 2 hrs by scintillation proximity assay. In general terms: Scintillation proximity formats need no separation of bound from free tracer.

The target of experiment [2] is Cyclin-dependent kinase 2/cyclin A (Homo sapiens, UniProt P24941). Nature of the experiment: Inhibition of CDK2/cyclin A. It counts as protein-complex assay.
A short description of experiment [3]: Selectivity ratio, ratio of IC50 for CDK2/cyclin A to IC50 for recombinant His-CHK1.

Take `CC#Cc1cnn2c(N)cc(C3CCCNC3)nc12` (configuration not stated): the IC50 (as a rule, the point on the concentration scale where inhibition reaches its midpoint) was 18000 nM in experiment [1] and 80 nM in experiment [2].

For the compound `Cn1cc(-c2cnn3c(Nc4ccccc4)cc(C4CCCNC4)nc23)cn1` (configuration not stated), the IC50 in experiment [1] was 87 nM; in experiment [2], more than 50000 nM.

For the compound `Nc1cc(C2CCCNC2)nc2c(-c3ccccc3)cnn12` (configuration not stated), the concentration for half-maximal inhibition (IC50) is 4500 nM in experiment [1] and 4600 nM in experiment [2].

As to `Cn1cc(-c2cnn3c(Nc4nccs4)cc(C4CCCNC4)nc23)cn1` (configuration not stated), the IC50 in experiment [1] was 28 nM; in experiment [2] it was more than 50000 nM.

On to `Nc1cc(-c2ccccc2)nc2c(Br)cnn12`, for which the IC50 in experiment [1] was determined as 2900 nM; in experiment [2] it was 250 nM.

With `CCOC(=O)c1cnn2c(N)cc(C3CCCNC3)nc12` (configuration not stated), the IC50 in experiment [1] was more than 50000 nM.

Take `Cn1cc(-c2cnn3c(NCc4ccccc4)cc(C4CCCNC4)nc23)cn1` (configuration not stated): the IC50 in experiment [1] was 1000 nM.

Turning to `N#Cc1cnn2c(N)cc(C3CCCNC3)nc12` (configuration not stated), the results for the concentration for half-maximal inhibition (IC50) in experiment [1] and in experiment [2] were 2100 nM and 810 nM, respectively.

Consider `[O-][n+]1cccc(CNc2cc(-c3ccccc3F)nc3c(Br)cnn23)c1`, for which the IC50 in experiment [1] is more than 50000 nM; in experiment [2] it was 13 nM.

With `Nc1cc(C2CCCNC2)nc2c(-c3cccc(O)c3)cnn12` (configuration not stated), the half-maximal inhibitory concentration (IC50) in experiment [1] is 1700 nM; in experiment [2] it was 640 nM.

As to `Nc1cc(C2CCCNC2)nc2ccnn12` (configuration not stated), the IC50 was 36000 nM in experiment [1] and 7800 nM in experiment [2].

Consider `Nc1cc(C2CCCNC2)nc2c(-c3cccs3)cnn12` (configuration not stated), for which the IC50 turned out to be 1300 nM in experiment [1] and 690 nM in experiment [2].

As to `Cn1cc(-c2cnn3c(NCc4cccnc4)cc(C4CCCNC4)nc23)cn1` (configuration not stated), the 50% inhibitory concentration (IC50) in experiment [1] was 410 nM; in experiment [2], more than 50000 nM.

For the compound `Cn1cc(-c2cnn3c(NCCO)cc(C4CCCNC4)nc23)cn1` (configuration not stated), the IC50 in experiment [1] was 860 nM; in experiment [2] it was more than 50000 nM.

Consider `Nc1cc(C2CCCNC2)nc2c(-c3ccn[nH]3)cnn12` (configuration not stated), for which the 50% inhibitory concentration (IC50) worked out at 2000 nM in experiment [1] and 2200 nM in experiment [2].

For `C/C=C/c1cnn2c(N)cc(C3CCCNC3)nc12` (configuration not stated), the concentration for half-maximal inhibition (IC50) worked out at 5100 nM in experiment [1] and 710 nM in experiment [2].

For the compound `Nc1cc(C2CCCNC2)nc2c(-c3ccsc3)cnn12` (configuration not stated), the IC50 in experiment [1] stood at 1100 nM; in experiment [2] it was 590 nM.

As to `CCNc1cc(C2CCCNC2)nc2c(-c3cnn(C)c3)cnn12` (configuration not stated), the IC50 is 480 nM in experiment [1] and more than 50000 nM in experiment [2].

The compound `Cc1cc(Nc2cc(C3CCCNC3)nc3c(-c4cnn(C)c4)cnn23)sn1` (configuration not stated) gave an IC50 in experiment [2] of 40000 nM.

In the case of `Cn1cc(-c2cnn3c(NC(C)(C)C)cc(C4CCCNC4)nc23)cn1` (configuration not stated), the IC50 in experiment [1] was 5000 nM; in experiment [2] it was more than 50000 nM.

Turning to `Cn1cc(-c2cnn3c(Nc4nncs4)cc(C4CCCNC4)nc23)cn1` (configuration not stated), the concentration for half-maximal inhibition (IC50) in experiment [1] was 2200 nM; in experiment [2] it was more than 50000 nM.

Consider `Nc1cc(C2CCCNC2)nc2c(-c3cscn3)cnn12` (configuration not stated), for which the IC50 in experiment [1] is more than 50000 nM.

Regarding `CNc1cc(C2CCCNC2)nc2c(-c3cnn(C)c3)cnn12` (configuration not stated), the concentration for half-maximal inhibition (IC50) in experiment [1] was 140 nM; in experiment [2], more than 50000 nM.

As for `Cn1cc(-c2cnn3c(NC4CCNCC4)cc(C4CCCNC4)nc23)cn1` (configuration not stated), the half-maximal inhibitory concentration (IC50) is 6800 nM in experiment [1] and more than 50000 nM in experiment [2].

In the case of `CCn1nccc1Nc1cc(C2CCCNC2)nc2c(-c3cnn(C)c3)cnn12` (configuration not stated), the IC50 in experiment [1] came out at 34000 nM.

Turning to `Nc1cc(C2CCCNC2)nc2c(Br)cnn12` (configuration not stated), the figures for the IC50 in experiment [1] and in experiment [2] were 1080 nM and 86 nM, respectively.

As to `Cc1nc2cc(Nc3cc(C4CCCNC4)nc4c(-c5cnn(C)c5)cnn34)ccc2s1` (configuration not stated), the concentration for half-maximal inhibition (IC50) in experiment [1] is 610 nM; in experiment [2], more than 50000 nM.

For the compound `Cn1cc(-c2cnn3c(N)cc(C4CCCNC4)nc23)cn1` (configuration not stated), the values for the IC50 in experiment [1] and in experiment [2] were 60 nM and 6100 nM, respectively. Besides, the Ratio IC50 in experiment [3] was determined as 100.

As to `Nc1cc(C2CCCNC2)nc2c(-c3ccns3)cnn12` (configuration not stated), the IC50 in experiment [1] was determined as 70 nM; in experiment [2] it was 790 nM.

As to `Nc1cc(C2CCCNC2)nc2c(-c3cccnc3)cnn12` (configuration not stated), in experiment [1], the IC50 was 540 nM.

In the case of `CCOC(=O)c1ccc(Nc2cc(C3CCCNC3)nc3c(-c4cnn(C)c4)cnn23)cc1` (configuration not stated), the IC50 in experiment [1] is 51 nM; in experiment [2] it was more than 50000 nM.

Consider `Cn1cc(-c2cnn3c(Nc4ccc5c(c4)OCO5)cc(C4CCCNC4)nc23)cn1` (configuration not stated), for which the IC50 in experiment [1] is 390 nM; in experiment [2], more than 50000 nM.

As to `Cn1cc(-c2cnn3c(NC4CCCCC4)cc(C4CCCNC4)nc23)cn1` (configuration not stated), the half-inhibitory concentration (IC50) in experiment [1] is 1500 nM; in experiment [2], more than 50000 nM.

Turning to `Cn1cc(-c2cnn3c(Nc4ccccn4)cc(C4CCCNC4)nc23)cn1` (configuration not stated), the half-inhibitory concentration (IC50) in experiment [1] is 28 nM; in experiment [2], more than 50000 nM.

Turning to `CCc1cnn2c(N)cc(C3CCCNC3)nc12` (configuration not stated), the results for the concentration for half-maximal inhibition (IC50) in experiment [1] and in experiment [2] were 9400 nM and 270 nM, respectively.

`Nc1cc(C2CCCNC2)nc2c(-c3ccoc3)cnn12` (configuration not stated): the IC50 in experiment [1] stood at 820 nM.

As to `Nc1cc(C2CCCNC2)nc2c(-c3cncnc3)cnn12` (configuration not stated), the IC50 in experiment [1] worked out at 280 nM; in experiment [2] it was 5400 nM.

Turning to `Nc1cc(C2CCCNC2)nc2c(-c3cnccn3)cnn12` (configuration not stated), the figures for the IC50 in experiment [1] and in experiment [2] were 290 nM and 1200 nM, respectively.

As to `Cc1cc(Nc2cc(C3CCCNC3)nc3c(-c4cnn(C)c4)cnn23)no1` (configuration not stated), the IC50 in experiment [1] was 21 nM; in experiment [2], more than 50000 nM.

Source of the values: ChEMBL document CHEMBL1641420, “Discovery of pyrazolo[1,5-a]pyrimidine-based CHK1 inhibitors: a template-based approach--part 1” (Bioorg Med Chem Lett, 2011).
